For data set [1], the target named is T1, Grb7-SH2 domain (Homo sapiens, UniProt Q14451).
T1 construct: made in house
The data set can be described thus: Surface plasmon resonance (SPR) binding to Grb7-SH2 domain. To be noted: for Kd: SPR BIAcore T100, GST-Grb7-SH2 captured via anti-GST antibody on CM5 chip, 50mM Na3PO4, 150–300 mM NaCl, 1 mM DTT pH 7.4, peptides without Penetratin, 0.015 to 250 μM, triplicate injections, steady-state, single-site binding model, errors are SD from model, SD, read-out: equilibrium dissociation binding constant (KD). On the procedure: GST and GST-Grb7-SH2 proteins were expressed and purified as previously described. Briefly, Grb7-SH2 was expressed as a GST fusion, and protein was purified via GST affinity chromatography, followed by size exclusion chromatography.
SPR experiments were carried out as previously described using the BIAcore T100 [23, 26]. BIAcore CM5 series S sensor chips (GE Life Sciences, Paramatta, NSW, Australia) were utilised. Amine coupling was used to immobilise the anti-GST antibody (Abcam, Cambridge, UK) to all flow cells. The immobilisation levels were between 11,000 RU and 7700 RU. As a control, the first flow cell captured only GST. GST-Grb7-SH2 was immobilised on flow cell 2 at close to 2800 RU. Peptides were resuspended in an analysis buffer consisting of 50mM Na3PO4, 150–300 mM NaCl, and 1 mM DTT (pH 7.4). The peptide was injected over flow cells at 30 μL/min for 60–80 s in triplicates. Double-referenced SPR data were analysed using Scrubber 2.0 (BioLogic Software, Campbell, ACT, Australia) and Prism 9.2.0 (GraphPad Prism v9.0, San Diego, CA, USA).
Here, it should be noted that the peptides were tested in the absence of the Penetratin tail shown in the schematic (Figure 1). In brief, peptides, at a range of concentrations, flowed over the chip surface to which the Grb7-SH2 domain was tethered, and the response was detected over time. […] In order to quantitate the binding affinities, the equilibrium dissociation binding constants (KD) for each peptide were calculated using binding curves derived from the sensogram responses at equilibrium (Figure 2E).
Figure 2 SPR binding analysis of newly developed Grb7-SH2-targeting peptides. […] Errors are SD arising from model.

Data set [2] has as its target T1, Grb7-SH2 domain. To be noted: earlier work; cited from earlier work. The text has this:
Three peptides were designed with Phe-Pro, Phe-Trp, or Phe-Arg incorporated at positions 9 and 10 of the amino acid sequence. […] Thus, it can be concluded that the lactam linkage confers a degree of rigidity sufficient to enha ...
Target sequence in this assay (Q14451 431-527 limits assumed): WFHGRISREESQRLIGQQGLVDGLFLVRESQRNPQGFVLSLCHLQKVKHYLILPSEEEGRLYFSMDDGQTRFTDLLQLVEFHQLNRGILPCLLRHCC

For data set [3] the following is noted: not told; cited from earlier work.
Data set [4] has as its target T2, GST-Grb7-SH2 (UniProt Q14451 415-532).
T2 construct: Captured on the chip by an anti-GST antibody; also called Grb7-SH2 domain
Nature of the data set: SPR; BIAcore T100, CM5 chip; GST-Grb7-SH2 held (close to 2800 RU) on amine-coupled anti-GST antibody, GST alone on the reference flow cell; peptides 0.015 to 250 uM injected at 30 uL/min for 60-80 s in triplicates; 50 mM Na3PO4, 150-300 mM NaCl, 1 mM DTT, pH 7.4; KD from steady-state responses, single-site binding model. Conditions: both partners purified.

Read-outs that look alike come from different tables or passages of the source. Positions of bridges follow the written chain, without caps; N, C: chain ends. Residues, ends and D or L forms follow the SMILES beside them. No end group written: not given here.

T2 sequence (Q14451 415-532): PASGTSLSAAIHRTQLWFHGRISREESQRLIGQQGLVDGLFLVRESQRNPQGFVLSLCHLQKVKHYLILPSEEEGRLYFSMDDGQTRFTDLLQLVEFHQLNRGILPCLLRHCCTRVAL

Regarding `NC(=O)C[C@@H]1NC(=O)[C@H](CC(=O)O)NC(=O)[C@H](Cc2ccc(O)cc2)NC(=O)CNC(=O)[C@H](CCC(=O)O)NC(=O)[C@H](Cc2ccccc2)NC(=O)[C@@H]2CCCCNC(=O)CC[C@H](NC1=O)C(=O)N[C@@H](Cc1ccccc1)C(=O)N1CCC[C@H]1C(=O)N[C@H](C(N)=O)CSCC(=O)N2` [G7-B8] ({CH2CO}-KFEGYDNEFPC-NH2; lactam 1-8; thioether N-11; C-terminus assumed), the dissociation constant Kd in data set [1] worked out at 0.86 ± 0.08 µM. For the same molecule, the “fold increase in affinity over G7-18NATE” value in data set [1] (ratio of SPR KD values) is recorded as “approximately 8 fold”. Take `NC(=O)C[C@@H]1NC(=O)[C@H](CC(=O)O)NC(=O)[C@H](Cc2ccc(O)cc2)NC(=O)CNC(=O)[C@H](CCC(=O)O)NC(=O)[C@H](Cc2ccccc2)NC(=O)[C@@H]2CCCCNC(=O)CC[C@H](NC1=O)C(=O)N[C@@H](Cc1ccccc1)C(=O)N[C@@H](Cc1c[nH]c3ccccc13)C(=O)N[C@H](C(N)=O)CSCC(=O)N2` [G7-B9] ({CH2CO}-KFEGYDNEFWC-NH2; lactam 1-8; thioether N-11; C-terminus assumed): the Kd in data set [1] worked out at 2.68 ± 0.39 µM.

In the case of `N=C(N)NCCC[C@@H]1NC(=O)[C@H](Cc2ccccc2)NC(=O)[C@@H]2CCC(=O)NCCCC[C@H](NC(=O)CSC[C@@H](C(N)=O)NC1=O)C(=O)N[C@@H](Cc1ccccc1)C(=O)N[C@@H](CCC(=O)O)C(=O)NCC(=O)N[C@@H](Cc1ccc(O)cc1)C(=O)N[C@@H](CC(=O)O)C(=O)N[C@@H](CC(N)=O)C(=O)N2` [G7-B10] ({CH2CO}-KFEGYDNEFRC-NH2; lactam 1-8; thioether N-11; C-terminus assumed), the Kd in data set [1] came to 1.15 ± 0.408 µM.

Turning to “G7-B1: bicyclic G7 peptide with O-allylserine-based olefin staple between positions 1 and 8 (SFEGYDNSFPC; bicyclic: O-allylserine at positions 1 and 8 (parent Ser) joined by olefin staple (ring-closing metathesis); thioether linkage from N-terminal amine (acetyl/CH2CO) to Cys11 side chain; C-terminal amid)”, the Kd in data set [2] is 1.5 µM. In the case of “KFEGYDNEC (also: bicyclic or more (positions not given here)) [G7-B7]”, in data set [3], the membrane permeability entry was “membrane-impermeable”.

B1: G7-18NATE (peptide)
peptide: WFEGYDNTFPC
modifications: cyclic: thioether linkage that tethers the N-terminal amine to the cysteine side chain
notes: non-phosphorylated cyclic peptide of 11 amino acids identified by phage display; also called first-generation monocyclic peptide; source: synthetic peptide, bought: Purar Chemicals (RP-HPLC, >95% purity)
In data set [4], B1 came in with a Kd of 7.83 µM.

Values taken from paper PMC9138261, “Enhancing the Bioactivity of Bicyclic Peptides Targeted to Grb7-SH2 by Restoring Cell Permeability” (Biomedicines, 2022).
